Measurements published in PMC10057066, “Unraveling the Aquaporin-3 Inhibitory Effect of Rottlerin by Experimental and Computational Approaches” (International Journal of Molecular Sciences, 2023).

Biological target: T1, aquaporin-3 (AQP3) (Homo sapiens, UniProt Q92482)
T1 construct: human AQP3 C-terminally GFP-tagged, expressed in aqy-null S. cerevisiae; endogenous AQP3 in human red blood cells
T1 sequence (Q92482 1-292): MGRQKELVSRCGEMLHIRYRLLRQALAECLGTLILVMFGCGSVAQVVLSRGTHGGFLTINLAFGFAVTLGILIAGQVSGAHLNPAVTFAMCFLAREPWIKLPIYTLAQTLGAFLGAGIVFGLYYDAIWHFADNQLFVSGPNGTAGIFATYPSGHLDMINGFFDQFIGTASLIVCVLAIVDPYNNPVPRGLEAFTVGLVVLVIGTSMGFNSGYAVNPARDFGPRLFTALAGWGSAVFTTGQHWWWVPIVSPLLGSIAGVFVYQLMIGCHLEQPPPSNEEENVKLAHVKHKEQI
Test: stopped-flow glycerol permeability in hRBCs (IC50), confirmed in hAQP3-expressing yeast ([…] inhibition at […])
Format: cell-based

## CC(=O)c1c(O)c(C)c(O)c(Cc2c(O)c3c(c(C(=O)/C=C/c4ccccc4)c2O)OC(C)(C)C=C3)c1O [RoT, Rottlerin]
  IC50: 6.7 ± 2.97 µM
